One data set concerns Oryctolagus sp. Conditions: acute, dermal.
Data set [1] deals with Rattus norvegicus. Conditions: for LC50 / LD50: acute; for LC50: Inhalation; for LD50 / NOAEL / LOAEL: oral.
Data set [2] deals with Rattus norvegicus. Conditions: for LEL: uterotrophic, Active.
The test system of data set [3] is Rattus norvegicus. Conditions: subchronic; duration: 13 weeks; oral; diet; F; Fischer 344; Body Weight Changes: decrease + Histopathology: Bone marrow-Reticulum-cell hyperplasia Bone marrow-Myeloid depletion.
The mark [4] stands for this setting: subchronic, duration: 90 days, diet, Wistar.
[5] abbreviates: reproduction developmental, duration: 39 days, gavage, generation: F0.
The mark [6] stands for this setting: short-term, duration: 28 days, gavage.
[7] abbreviates: short-term, duration: 4 weeks, diet, Sprague-Dawley.
The mark [8] stands for this setting: subchronic, duration: 90 days, gavage, Sprague-Dawley.

Where “and” joins values, the source holds several entries; their conditions need not be identical. Identical values can stand only once.

`CCCCCCC=O` [Heptanal]: the 50% lethal dose (LD50) with Oryctolagus sp. and in the data set with Rattus norvegicus [1] (gavage) was > 5000 mg/kg in each case. Further, the 50% lethal concentration (LC50) (as a rule, the concentration lethal to half of the exposed cells or organisms) with Rattus norvegicus [1] (Sprague-Dawley) was > 4.7 µg/mL. In addition, the no-observed-adverse-effect level (NOAEL) (in general, the highest dose or exposure tested at which no adverse effect was seen) in the data set on Rattus norvegicus [1] (reproduction developmental, gavage, F, Wistar) worked out at 2050 mg/kg-day; with Rattus norvegicus [1] (setting [4]), 37 mg/kg-day. For the same molecule, the lowest observed adverse effect level (LOAEL) (in general, the lowest dose or exposure tested at which an adverse effect was seen) with Rattus norvegicus [1] (setting [4]) amounted to 150 mg/kg-day.

Consider `CCCCCCCCCc1cc2ccccc2c(S(=O)(=O)O)c1CCCCCCCCC` [Dinonylnaphthalenesulfonic acid], for which the LD50 (commonly the dose expected to kill half of the subjects tested) was > 2000 mg/kg with Oryctolagus sp. (New Zealand) and > 5000 mg/kg with Rattus norvegicus [1] (gavage, Sprague-Dawley). The 50% lethal concentration (LC50) with Rattus norvegicus [1] (Wistar) is > 200 µg/mL.

In the case of `CCCCCCCCCCCCOC(=O)CS(=O)(=O)[O-].[Na+]` [Sodium 2-(dodecyloxy)-2-oxoethane-1-sulphonate], the 50% lethal dose (LD50) was > 2000 mg/kg with Oryctolagus sp. (occlusive, New Zealand); 1000 mg/kg in the data set on Rattus norvegicus [1] (Wistar); > 2000 mg/kg with Rattus norvegicus [1] (gavage, Sprague-Dawley). The NOAEL with Rattus norvegicus [1] (reproduction developmental, duration: 39 days, gavage) was 1000 mg/kg-day; in the data set on Rattus norvegicus [1] (setting [5]), 200 mg/kg-day; in the data set on Rattus norvegicus [1] (setting [6]), 200 mg/kg-day. Moreover, the figures for the LOAEL in the data set with Rattus norvegicus [1] (setting [5]) and in the data set on Rattus norvegicus [1] (setting [6]) were 1000 mg/kg-day and 800 mg/kg-day, respectively.

Take `CCCCCCCCC(=O)OCC(CC)(COC(=O)CCCCCCCC)COC(=O)CCCCCCCC` [Trimethylolpropane trinonanoate]: the LD50 was > 2000 mg/kg in the data set on Oryctolagus sp.; > 2000 mg/kg in the data set on Rattus norvegicus [1] (gavage, Crl:CD(SD)); > 5000 mg/kg with Rattus norvegicus [1] (gavage, Sherman Wistar); > 2000 mg/kg in the data set with Rattus norvegicus [1] (gavage, Sprague-Dawley); > 2000 mg/kg with Rattus norvegicus [1] (gavage, Wistar).

Consider `CCCCCCCCCCCCN(C)C` [N,N-Dimethyldodecan-1-amine], for which the median lethal dose (LD50) in the data set with Oryctolagus sp. (occlusive, New Zealand) was 5000 mg/kg; with Rattus norvegicus [1] (gavage, Wistar), 1220 mg/kg and 790 mg/kg.

On to `CCCCC(CC)COC(=O)c1c(Br)c(Br)c(Br)c(Br)c1C(=O)OCC(CC)CCCC` (configuration not stated) [Bis(2-ethylhexyl) tetrabromophthalate], for which the LD50 in the data set with Oryctolagus sp. (New Zealand) was > 3090 mg/kg; in the data set with Rattus norvegicus [1] (gavage, Crl:CD(SD)) it was > 5000 mg/kg. Moreover, the LOAEL with Rattus norvegicus [1] (setting [7]) was found to be 20000 ppm. In the data set with Rattus norvegicus [1] (setting [7]), this molecule came in with an NOAEL of 2000 ppm.

In the case of `C=C1C2CCC(C2)C1(C)C` (configuration not stated) [Camphene], the median lethal dose (LD50) in the data set on Oryctolagus sp. (New Zealand) is > 2500 mg/kg; in the data set on Rattus norvegicus [1] (Wistar), > 5000 mg/kg. Also, the NOAEL in the data set on Rattus norvegicus [1] (developmental, duration: 10 days, gavage, Sprague-Dawley) came out at 1000 mg/kg-day; in the data set on Rattus norvegicus [1] (reproduction developmental, duration: 10 days, gavage, F, Sprague-Dawley), 250 mg/kg-day; with Rattus norvegicus [1] (short-term, duration: 28 days, gavage, F, Wistar), 250 mg/kg-day; with Rattus norvegicus [1] (short-term, duration: 28 days, gavage, M, Wistar), 62.5 mg/kg-day. This molecule registered an LOAEL in the data set with Rattus norvegicus [1] (short-term, duration: 28 days, gavage, Wistar) of 1000 mg/kg-day.

Take `O=C(OCC1CCC2OC2C1)C1CCC2OC2C1` (configuration not stated) [ECC]: the 50% lethal dose (LD50) in the data set with Oryctolagus sp. (occlusive, New Zealand) was > 20 mg/kg; in the data set on Rattus norvegicus [1] (gavage, Sprague-Dawley), 5000 mg/kg. Further, the NOAEL in the data set with Rattus norvegicus [1] (developmental, duration: 14 days, gavage, Sprague-Dawley) is 125 mg/kg-day; in the data set with Rattus norvegicus [1] (reproduction developmental, duration: 14 days, gavage, F, Sprague-Dawley), 25 mg/kg-day; in the data set on Rattus norvegicus [1] (reproduction developmental, duration: 90 days, gavage, Sprague-Dawley, generation: F0), ≥ 500 mg/kg-day; in the data set on Rattus norvegicus [1] (setting [8]) it was 5 mg/kg-day. Moreover, the LOAEL was determined as 100 mg/kg-day in the data set on Rattus norvegicus [1] (short-term, duration: 14 days, gavage, Sprague-Dawley) and 50 mg/kg-day in the data set on Rattus norvegicus [1] (setting [8]).

Take `C[C@H]1CCC[C@@H](O)CCC/C=C/c2cc(O)cc(O)c2C(=O)O1` [beta-Zearalenol]: the LEL in the data set with Rattus norvegicus [2] (duration: 3 days, oral) turned out to be 0.8 mg/day.

`O=C1O[C@H]([C@@H](O)CO)C(O)=C1O` [L-Ascorbic acid]: the NOEL with Rattus norvegicus [3] was < 2400 mg/kg-day. The molecule further showed an LEL in the data set with Rattus norvegicus [2] (duration: 20 days, injection, subcutaneous) of 25 mg/kg-day.

With `CC[C@H](C)[C@H]1O[C@]2(C=C[C@@H]1C)C[C@@H]1C[C@@H](C/C=C(\C)[C@@H](O[C@H]3C[C@H](OC)[C@@H](O[C@H]4C[C@H](OC)[C@@H](O)[C@H](C)O4)[C@H](C)O3)[C@@H](C)/C=C/C=C3\CO[C@@H]4[C@H](O)C(C)=C[C@@H](C(=O)O1)[C@]34O)O2.CO[C@H]1C[C@H](O[C@H]2[C@H](C)O[C@@H](O[C@@H]3/C(C)=C/C[C@@H]4C[C@@H](C[C@]5(C=C[C@H](C)[C@@H](C(C)C)O5)O4)OC(=O)[C@@H]4C=C(C)[C@@H](O)[C@H]5OC/C(=C\C=C\[C@@H]3C)[C@]54O)C[C@@H]2OC)O[C@@H](C)[C@@H]1O` [Abamectin], the NOEL with Rattus norvegicus [2] (Hershberger, duration: 10 days, oral, gavage, Sprague-Dawley, inactive + Negative + Negative + anti-androgenic + negative) turned out to be 1.5 mg/kg-day.

The values are drawn from EPA's ToxValDB 9.5.
